11 compounds from ChEMBL document CHEMBL2034838, “Quinazolino-benzothiazoles: fused pharmacophores as anticonvulsant agents” (Eur J Med Chem, 2012) can be followed below.

Data set [1] relates to Mus musculus. Nature of the data set: Hepatotoxicity in Swiss albino mouse assessed as change in liver SGPT level at 25 mg/kg/day for 15 days. The class given is toxicity, organism-based. The conditions noted are these: in vivo, 360 h.
The subject of data set [2] is Mus musculus. Nature of the data set: Hepatotoxicity in Swiss albino mouse assessed as change in liver SGOT level at 25 mg/kg/day for 15 days. Type of data set: toxicity, organism-based. The settings on record: in vivo, 360 h.
The test system of data set [3] is Mus musculus. Nature of the data set: Anticonvulsant activity in Swiss albino mouse assessed as decrease in time of maximum electroshock-induced tonic hind leg extension administered as ip at equimolar dose of phenytoin 30 mins before maximum electroshock seizure stimulation measured after 0.5 hrs (reference value: 15.40 +/- 0.50 sec). The class given is functional, Hindlimb.

Data set [4] has as its system Mus musculus. Nature of the data set: Hepatotoxicity in Swiss albino mouse assessed as change in liver alkaline phosphatase level at 25 mg/kg/day for 15 days. Type of data set: toxicity, organism-based. The conditions noted are these: in vivo, 360 h.
In data set [5] the test system is Mus musculus. Kind of data set: Hepatotoxicity in Swiss albino mouse assessed as change in liver total protein level assessed per 100 ml at 25 mg/kg/day for 15 days. The class given is toxicity, organism-based. The conditions noted are these: in vivo, 360 h.
The species entered for data set [6] is Mus musculus. Kind of data set: Neurotoxicity in Swiss albino mouse by rotarod test. The class given is toxicity, organism-based. The settings on record: in vivo.
Data set [7] deals with Mus musculus. Nature of the data set: Anticonvulsant activity in Swiss albino mouse assessed as decrease in time of subcutaneous PTZ-induced clonic hind leg extension administered as ip at equimolar dose of diazepam 30 mins before subcutaneous PTZ challenge measured after 0.5 hrs (reference value: 76.80 +/- 2.41 sec). The class given is functional, Hindlimb.
The subject of data set [8] is Mus musculus. Nature of the data set: Anticonvulsant activity in ip dosed Swiss albino mouse assessed as decrease in time of subcutaneous PTZ-induced clonic hind leg extension administered 30 mins before subcutaneous PTZ challenge measured after 0.5 hrs (reference value: 76.80 +/- 2.41 sec). Type of data set: functional, Hindlimb.

For the compound `CCc1nc2ccc(Br)cc2c(=O)n1-c1nc2c(OC)cccc2s1`, the Activity result in the data set with Mus musculus [1] is “Non-toxic”; in the data set with Mus musculus [2], “Non-toxic”; with Mus musculus [4] it was “Non-toxic”; in the data set on Mus musculus [5], 1.82 g; in the data set filed under Mus musculus [6], “Non-toxic”. Besides, the Time in the data set with Mus musculus [3] worked out at 10.2 s; in the data set with Mus musculus [7], 98.12 s.

In the case of `CCc1nc2ccc(Br)cc2c(=O)n1-c1nc2ccccc2s1`, the Activity result with Mus musculus [1] is “Non-toxic”; in the data set with Mus musculus [2], “Non-toxic”; with Mus musculus [4] it was “Non-toxic”; in the data set with Mus musculus [5], 1.82 g; in the data set filed under Mus musculus [6] it was “Non-toxic”. Also, the Time with Mus musculus [3] worked out at 7.4 s; in the data set with Mus musculus [7], 91.6 s.

For `CCc1nc2ccc(Br)cc2c(=O)n1-c1nc2cc(Cl)ccc2s1`, the Activity entry in the data set on Mus musculus [1] is on record as “Non-toxic”; in the data set with Mus musculus [2], “Non-toxic”; in the data set with Mus musculus [4], “Non-toxic”; in the data set with Mus musculus [5] it was 1.75 g; in the data set filed under Mus musculus [6] it was “Non-toxic”. Besides, the Time is recorded as 8.6 s in the data set on Mus musculus [3] and 93 s in the data set on Mus musculus [7].

On to `CCc1nc2ccc(Br)cc2c(=O)n1-c1nc2cc(OC)ccc2s1`, for which the Time stood at 10.6 s in the data set on Mus musculus [3] and 89.8 s in the data set with Mus musculus [7].

In the case of `CCc1nc2ccc(Br)cc2c(=O)n1-c1nc2cc(C)ccc2s1`, the Time in the data set on Mus musculus [3] is given as 11.2 s; with Mus musculus [7] it was 93.2 s.

For `CCc1nc2ccc(Br)cc2c(=O)n1-c1nc2c(C)cc(C)cc2s1`, the Time with Mus musculus [3] worked out at 11.8 s; in the data set with Mus musculus [7], 91.6 s.

Take `CCc1nc2ccc(Br)cc2c(=O)n1-c1nc2ccc([N+](=O)[O-])cc2s1`: the Time in the data set with Mus musculus [3] is recorded as 12 s; in the data set with Mus musculus [7], 91 s.

Take `CCc1nc2ccc(Br)cc2c(=O)n1-c1nc2c(C)cccc2s1`: the Time is reported as 10.5 s in the data set with Mus musculus [3] and 95.23 s in the data set with Mus musculus [7].

Regarding `CCc1nc2ccc(Br)cc2c(=O)n1-c1nc2ccc(OC)cc2s1`, the Activity result with Mus musculus [1] is “Non-toxic”; in the data set with Mus musculus [2] it was “Non-toxic”; in the data set with Mus musculus [4], “Non-toxic”; in the data set with Mus musculus [5], 1.78 g; in the data set listed under Mus musculus [6] it was “Non-toxic”. In addition, the results for the Time with Mus musculus [3] and in the data set on Mus musculus [7] were 9.7 s and 99.45 s, respectively.

Regarding `CCOc1cccc2sc(-n3c(CC)nc4ccc(Br)cc4c3=O)nc12`, the Activity entry with Mus musculus [1] was “Non-toxic”; with Mus musculus [2], “Non-toxic”; in the data set with Mus musculus [4], “Non-toxic”; in the data set with Mus musculus [5] it was 1.82 g; in the data set listed under Mus musculus [6], “Non-toxic”. Also, the Time is recorded as 10.1 s in the data set on Mus musculus [3] and 98 s with Mus musculus [7].

Consider `CN1C(=O)CN=C(c2ccccc2)c2cc(Cl)ccc21` [DIAZEPAM], for which, in the data set with Mus musculus [8], the Time stood at 111.6 s. Also, the Activity result in the data set filed under Mus musculus [6] is on record as “Non-toxic”.
